Experimental data as given in US20140120087A1, “TRIAZOLOPYRIDINES” (BAYER INTELLECTUAL PROPERTY GMBH, priority 2011, published 2014).

Columns and labels:
Mps-1 kinase [1] = biological target: T1, Mps-1 kinase (Homo sapiens, UniProt P33981); test: Mps-1 kinase assay with 2 mM ATP (TR-FRET)
T1 sequence (P33981 1-857): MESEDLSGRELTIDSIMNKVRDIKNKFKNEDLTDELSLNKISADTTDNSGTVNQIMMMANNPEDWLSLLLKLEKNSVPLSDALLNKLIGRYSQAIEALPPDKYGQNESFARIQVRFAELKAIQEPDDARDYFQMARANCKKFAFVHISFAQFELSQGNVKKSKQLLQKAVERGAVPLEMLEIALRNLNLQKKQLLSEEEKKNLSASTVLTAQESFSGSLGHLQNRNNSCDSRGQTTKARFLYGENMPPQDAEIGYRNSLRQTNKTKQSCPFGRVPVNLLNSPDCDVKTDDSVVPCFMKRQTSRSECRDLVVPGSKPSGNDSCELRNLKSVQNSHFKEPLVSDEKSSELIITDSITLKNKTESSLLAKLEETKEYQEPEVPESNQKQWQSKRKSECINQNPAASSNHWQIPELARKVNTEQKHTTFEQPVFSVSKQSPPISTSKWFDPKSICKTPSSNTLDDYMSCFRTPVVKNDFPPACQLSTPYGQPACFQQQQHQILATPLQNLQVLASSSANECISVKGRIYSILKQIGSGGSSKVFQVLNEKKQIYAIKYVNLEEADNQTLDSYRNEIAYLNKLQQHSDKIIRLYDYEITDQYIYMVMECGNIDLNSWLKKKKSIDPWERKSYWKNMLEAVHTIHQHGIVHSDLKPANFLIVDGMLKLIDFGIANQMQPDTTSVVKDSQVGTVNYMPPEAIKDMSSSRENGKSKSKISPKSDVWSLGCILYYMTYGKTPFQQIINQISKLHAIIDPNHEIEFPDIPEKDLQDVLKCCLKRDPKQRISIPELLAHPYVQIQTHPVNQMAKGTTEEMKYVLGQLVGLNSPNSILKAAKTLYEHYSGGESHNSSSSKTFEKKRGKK

Mps-1 kinase [2] = biological target: T1, Mps-1 kinase; test: Mps-1 kinase assay with 10 μM ATP (TR-FRET)

Cc1cc(S(C)(=O)=O)ccc1Nc1nc2ccc(-c3ccc(NC(=O)Cc4ccc(F)cc4)cc3)cn2n1 [Example 12.32, 2-(4-fluorophenyl)-N-[4-(2-{[2-methyl-4-(methyl-sulfonyl)phenyl]amino}-[1,2,4]triazolo[1,5-a]pyridin-6-yl)phenyl]acetamide]
IC50 (Mps-1 kinase [1]): 2.2 nM | IC50 (Mps-1 kinase [2]): ≤ 1 nM

COc1ccc(Nc2nc3ccc(-c4ccc(C(=O)NCc5ccc(F)cc5)cc4)cn3n2)c(C)c1 [Example 12.71, N-(4-fluorobenzyl)-4-{2-[(4-methoxy-2-methylphenyl)-amino][1,2,4]triazolo[1,5-a]pyridin-6-yl}benzamide]
IC50 (Mps-1 kinase [1]): 8.8 nM | IC50 (Mps-1 kinase [2]): ≤ 1 nM

O=C(NCCF)c1ccc(Nc2nc3ccc(-c4ccc(C(=O)NCc5ccc(F)cc5)cc4)cn3n2)c(OCC(F)(F)F)c1 [Example 12.59, 4-[(6-{4-[(4-fluorobenzyl)-carbamoyl]phenyl}[1,2,4]triazolo [1,5-a]pyridin-2-yl)-amino]-N-(2-fluoroethyl)-3-(2,2,2-trifluoroethoxy)-benzamide]
IC50 (Mps-1 kinase [1]): ≤ 1 nM | IC50 (Mps-1 kinase [2]): ≤ 1 nM

COc1cc([S@@+](C)[O-])ccc1Nc1nc2ccc(-c3ccc(NC(=O)Cc4ccc(F)cc4)cc3)cn2n1 (stereo in doubt) [Example 12.13, 2-(4-fluorophenyl)-N-[4-(2-{[2-methoxy-4-(methyl-sulfinyl)phenyl]amino}-[1,2,4]triazolo[1,5-a]pyridin-6-yl)phenyl]acetamide]
IC50 (Mps-1 kinase [1]): ≤ 1 nM | IC50 (Mps-1 kinase [2]): ≤ 1 nM

COc1cc([S@@+](C)[O-])c(F)cc1Nc1nc2ccc(-c3ccc(NC(=O)Cc4ccc(F)cc4)cc3)cn2n1 (stereo in doubt) [Example 12.14, N-[4-(2-{[5-fluoro-2-methoxy-4-(methylsulfinyl)-phenyl]amino}[1,2,4]-triazolo[1,5-a]pyridin-6-yl)-phenyl]-2-(4-fluorophenyl)-acetamide]
IC50 (Mps-1 kinase [1]): 8.5 nM | IC50 (Mps-1 kinase [2]): ≤ 1 nM

COc1cc(S(C)(=O)=O)ccc1Nc1nc2ccc(-c3ccc(NC(=O)Cc4ccc(F)cc4F)cc3)cn2n1 [Example 10.01]
IC50 (Mps-1 kinase [1]): 17 nM | IC50 (Mps-1 kinase [2]): ≤ 1 nM

O=C(Cc1ccc(F)cc1)Nc1ccc(-c2ccc3nc(Nc4ccc(F)cc4OC(F)F)nn3c2)cc1 [Example 12.27, N-[4-(2-{[2-(difluoro-methoxy)-4-fluorophenyl]-amino}[1,2,4]triazolo[1,5-a]pyridin-6-yl)phenyl]-2-(4-fluorophenyl)acetamide]
IC50 (Mps-1 kinase [1]): 9 nM | IC50 (Mps-1 kinase [2]): ≤ 1 nM

COc1cc(C(=O)NCCCF)ccc1Nc1nc2ccc(-c3ccc(C(=O)NCc4ccc(F)cc4)cc3)cn2n1 [Example 12.50, 4-[(6-{4-[(4-fluorobenzyl)-carbamoyl]phenyl}[1,2,4]triazolo [1,5-a]pyridin-2-yl)-amino]-N-(3-fluoropropyl)-3-methoxybenzamide]
IC50 (Mps-1 kinase [1]): 3.1 nM | IC50 (Mps-1 kinase [2]): ≤ 1 nM

Cc1cc(NS(C)(=O)=O)ccc1Nc1nc2ccc(-c3ccc(C(=O)NCc4ccc(F)cc4)cc3)cn2n1 [Example 12.70, N-(4-fluorobenzyl)-4-[2-({2-methyl-4-[(methylsulfonyl)-amino]phenyl}amino)[1,2,4]triazolo [1,5-a]pyridin-6-yl]-benzamide]
IC50 (Mps-1 kinase [1]): 9.5 nM | IC50 (Mps-1 kinase [2]): ≤ 1 nM

Cc1cc([S@@+](C)[O-])ccc1Nc1nc2ccc(-c3ccc(C(=O)NCc4ccc(Cl)cc4)cc3)cn2n1 (stereo in doubt) [Example 12.75, N-(4-chlorobenzyl)-4-(2-{[2-methyl-4-(methylsulfinyl)-phenyl]amino}[1,2,4]triazolo [1,5-a]pyridin-6-yl)-benzamide]
IC50 (Mps-1 kinase [1]): 5.1 nM | IC50 (Mps-1 kinase [2]): ≤ 1 nM

COc1cc(C(=O)NCCN(C)C)ccc1Nc1nc2ccc(-c3ccc(C(=O)NCc4ccc(F)cc4)cc3)cn2n1 [Example 12.48, N-[2-(dimethylamino)ethyl]-4-[(6-{4-[(4-fluorobenzyl)-carbamoyl]phenyl}[1,2,4]triazolo [1,5-a]pyridin-2-yl)amino]-3-methoxy-benzamide]
IC50 (Mps-1 kinase [1]): 1.3 nM | IC50 (Mps-1 kinase [2]): ≤ 1 nM

COc1cc(S(C)(=N)=O)ccc1Nc1nc2ccc(-c3ccc(NC(=O)Cc4ccc(F)cc4)cc3)cn2n1 (stereo not drawn) [Example 12.82, 2-(4-fluorophenyl)-N-[4-(2-{[2-methoxy-4-(S-methylsulfonimidoyl)phenyl]-amino}[1,2,4]triazolo[1,5-α]pyridin-6-yl)phenyl]acetamide]
IC50 (Mps-1 kinase [1]): ≤ 1 nM | IC50 (Mps-1 kinase [2]): ≤ 1 nM

CS(=O)(=O)c1ccc(Nc2nc3ccc(-c4ccc(C(=O)NCc5ccc(F)cc5)cc4)cn3n2)c(OC(F)F)c1 [Example 02.28, 4-(2-{[2-(difluoromethoxy)-4-(methylsulfonyl)phenyl]amino}[1,2,4]triazolo-[1,5-α]pyridin-6-yl)-N-(4-fluorobenzyl)benzamide]
IC50 (Mps-1 kinase [1]): 3.5 nM | IC50 (Mps-1 kinase [2]): ≤ 1 nM

NC(=O)c1ccc(Nc2nc3ccc(-c4ccc(NC(=O)Cc5ccc(F)cc5)cc4)cn3n2)c(OC(F)(F)F)c1 [Example 12.25, 4-{[6-(4-{[(4-fluorophenyl)-acetyl]amino}phenyl)[1,2,4]triazolo[1,5-a]pyridin-2-yl]amino}-3-(trifluoro-methoxy)benzamide]
IC50 (Mps-1 kinase [1]): 2.7 nM | IC50 (Mps-1 kinase [2]): ≤ 1 nM

CCOc1cc(S(=O)(=O)CC)ccc1Nc1nc2ccc(-c3ccc(NC(=O)Cc4ccc(F)cc4)cc3)cn2n1 [Example 01.33, N-[4-(2-{[2-ethoxy-4-(ethylsulfonyl)phenyl]amino}[1,2,4]triazolo[1,5-α]-pyridin-6-yl)phenyl]-2-(4-fluorophenyl)acetamide]
IC50 (Mps-1 kinase [1]): 1.3 nM | IC50 (Mps-1 kinase [2]): ≤ 1 nM

Cc1cc(NS(C)(=O)=O)ccc1Nc1nc2ccc(-c3ccc(NC(=O)Cc4ccc(F)cc4)cc3)cn2n1 [Example 12.34, 2-(4-fluorophenyl)-N-{4-[2-({2-methyl-4-[(methyl-sulfonyl)amino]phenyl}-amino)[1,2,4]triazolo[1,5-a]pyridin-6-yl]phenyl}-acetamide]
IC50 (Mps-1 kinase [1]): 6.6 nM | IC50 (Mps-1 kinase [2]): ≤ 1 nM

CCS(=O)(=O)c1ccc(Nc2nc3ccc(-c4ccc(NC(=O)Cc5ccc(F)cc5)cc4)cn3n2)c(OC(F)F)c1 [Example 01.36, N-[4-(2-{[2-(difluoromethoxy)-4-(ethylsulfonyl)phenyl]amino}[1,2,4]-triazolo[1,5-α]pyridin-6-yl)phenyl]-2-(4-fluorophenyl)acetamide]
IC50 (Mps-1 kinase [1]): ≤ 1 nM | IC50 (Mps-1 kinase [2]): ≤ 1 nM

COc1cc(C(=O)NCC(F)(F)F)ccc1Nc1nc2ccc(-c3ccc(C(=O)NCc4ccc(F)cc4F)cc3)cn2n1 [Example 12.79, 4-[(6-{4-[(2,4-difluoro-benzyl)carbamoyl]phenyl}-[1,2,4]triazolo[1,5-a]pyridin-2-yl)amino]-3-methoxy-N-(2,2,2-trifluoro-ethyl)benzamide]
IC50 (Mps-1 kinase [1]): 23 nM | IC50 (Mps-1 kinase [2]): ≤ 1 nM

Cc1cc(C(=O)NCCF)ccc1Nc1nc2ccc(-c3ccc(C(=O)NCc4ccc(F)cc4)cc3)cn2n1 [Example 12.67, 4-[(6-{4-[(4-fluorobenzyl)-carbamoyl]phenyl}[1,2,4]triazolo [1,5-a]pyridin-2-yl)-amino]-N-(2-fluoroethyl)-3-methylbenzamide]
IC50 (Mps-1 kinase [1]): 5 nM | IC50 (Mps-1 kinase [2]): ≤ 1 nM

Cc1cc([S@@+](C)[O-])ccc1Nc1nc2ccc(-c3ccc(C(=O)NCc4ccc(F)cc4)cc3)cn2n1 (stereo in doubt) [Example 12.69, N-(4-fluorobenzyl)-4-(2-{[2-methyl-4-(methylsulfinyl)-phenyl]amino}[1,2,4]triazolo [1,5-a]pyridin-6-yl)-benzamide]
IC50 (Mps-1 kinase [1]): 4.5 nM | IC50 (Mps-1 kinase [2]): ≤ 1 nM

COc1cc(C(C)(C)O)ccc1Nc1nc2ccc(-c3ccc(NC(=O)Cc4ccc(F)cc4)cc3)cn2n1 [Example 12.17, 2-(4-fluorophenyl)-N-[4-(2-{[4-(2-hydroxypropan-2-yl)-2-methoxyphenyl]amino}-[1,2,4]triazolo[1,5-a]pyridin-6-yl)phenyl]acetamide]
IC50 (Mps-1 kinase [1]): ≤ 1 nM | IC50 (Mps-1 kinase [2]): ≤ 1 nM

CN(C)CCNC(=O)c1ccc(Nc2nc3ccc(-c4ccc(NC(=O)Cc5ccc(F)cc5)cc4)cn3n2)c(OCC(F)(F)F)c1 [Example 12.23, N-[2-(dimethylamino)ethyl]-4-{[6-(4-{[(4-fluorophenyl)-acetyl]amino}phenyl)[1,2,4]triazolo[1,5-a]pyridin-2-yl]amino}-3-(2,2,2-trifluoro-ethoxy)benzamide]
IC50 (Mps-1 kinase [1]): ≤ 1 nM | IC50 (Mps-1 kinase [2]): ≤ 1 nM

COc1ccc(Nc2nc3ccc(-c4ccc(NC(=O)Cc5ccc(F)cc5)cc4)cn3n2)c(C)c1 [Example 12.35, 2-(4-fluorophenyl)-N-(4-{2-[(4-methoxy-2-methyl-phenyl)amino][1,2,4]-triazolo[1,5-a]pyridin-6-yl}-phenyl)acetamide]
IC50 (Mps-1 kinase [1]): 2.1 nM | IC50 (Mps-1 kinase [2]): ≤ 1 nM

COc1cc(S(C)(=O)=O)c(F)cc1Nc1nc2ccc(-c3ccc(NC(=O)Cc4ccc(F)cc4)cc3)cn2n1 [Example 12.12, N-[4-(2-{[5-fluoro-2-methoxy-4-(methylsulfonyl)-phenyl]amino}[1,2,4]-triazolo[1,5-a]pyridin-6-yl)phenyl]-2-(4-fluoro-phenyl)acetamide]
IC50 (Mps-1 kinase [1]): 13 nM | IC50 (Mps-1 kinase [2]): ≤ 1 nM
